These results are taken from article PMC11054573, “Identification of Ureidocoumarin-Based Selective Discoidin Domain Receptor 1 (DDR1) Inhibitors via Drug Repurposing Approach, Biological Evaluation, and In Silico Studies” (Pharmaceuticals, 2024).

What is called inhibition is the change of the read-out against control, counted positive when it falls. As a reminder, the IC50 is the point on the concentration scale where inhibition reaches its midpoint. What is called GI50 is the concentration that inhibits growth by half.

Where two headings read alike, the source gives them in different places.

Experiment [1] has as its system MCF-7 breast cancer cells. The experiment can be described thus: NCI SRB antiproliferative assay, MCF-7. The conditions noted are these: Homo sapiens, MCF7; for inhibition at 10 µM: read-out: % Growth inhibition at 10 µM MCF-7; for GI50: five-dose testing. It counts as cell-based. As for the experimental part:
(§1) Six members, 3a, 3g–j, and 3q, out of the investigated compounds were further evaluated for their antiproliferative effects against human cancer cell lines, including leukemia (K562), colon cancer (HCT116), non-small cell lung (NSCL) cancer (A549, NCI-H23 and NCI-H460), and breast cancer (MCF-7 and T47D) cells. The tested cell lines’ choice depended on their elevated DDR1 expression levels. The cell lines were all treated with a 10 µM concentration of the tested compounds, and the results were expressed as the percentage of growth inhibition (%GI) (Table 4).
(§2) Inhibition of the tumor relevant carbonic anhydrases IX and XII may be one of these additional mechanisms.
(§3) The evaluation of the antiproliferative activities of compounds 3a, 3g–j, and 3q over a panel of DDR1-dependent cell lines was conducted employing the sensitive Sulforhodamine B (SRB) assay at the National Cancer Institute (NCI), Bethesda, Maryland, USA, following the standard protocol.
A general note: Sulforhodamine B stains cellular protein and so reports cell mass.

For experiment [2], the system named is NCI-H460 non-small cell lung cancer cells. The experiment can be described thus: NCI SRB antiproliferative assay, NCI-H460. It counts as cell-based. Particulars: Homo sapiens; for inhibition at 10 µM: read-out: % Growth inhibition at 10 µM NCI-H460; for GI50: five-dose testing. As for the experimental part:
as §1, §2, §3

In the next experiment the target is T1, DDR2 (Homo sapiens, UniProt Q16832).
T1 sequence (Q16832 22-855): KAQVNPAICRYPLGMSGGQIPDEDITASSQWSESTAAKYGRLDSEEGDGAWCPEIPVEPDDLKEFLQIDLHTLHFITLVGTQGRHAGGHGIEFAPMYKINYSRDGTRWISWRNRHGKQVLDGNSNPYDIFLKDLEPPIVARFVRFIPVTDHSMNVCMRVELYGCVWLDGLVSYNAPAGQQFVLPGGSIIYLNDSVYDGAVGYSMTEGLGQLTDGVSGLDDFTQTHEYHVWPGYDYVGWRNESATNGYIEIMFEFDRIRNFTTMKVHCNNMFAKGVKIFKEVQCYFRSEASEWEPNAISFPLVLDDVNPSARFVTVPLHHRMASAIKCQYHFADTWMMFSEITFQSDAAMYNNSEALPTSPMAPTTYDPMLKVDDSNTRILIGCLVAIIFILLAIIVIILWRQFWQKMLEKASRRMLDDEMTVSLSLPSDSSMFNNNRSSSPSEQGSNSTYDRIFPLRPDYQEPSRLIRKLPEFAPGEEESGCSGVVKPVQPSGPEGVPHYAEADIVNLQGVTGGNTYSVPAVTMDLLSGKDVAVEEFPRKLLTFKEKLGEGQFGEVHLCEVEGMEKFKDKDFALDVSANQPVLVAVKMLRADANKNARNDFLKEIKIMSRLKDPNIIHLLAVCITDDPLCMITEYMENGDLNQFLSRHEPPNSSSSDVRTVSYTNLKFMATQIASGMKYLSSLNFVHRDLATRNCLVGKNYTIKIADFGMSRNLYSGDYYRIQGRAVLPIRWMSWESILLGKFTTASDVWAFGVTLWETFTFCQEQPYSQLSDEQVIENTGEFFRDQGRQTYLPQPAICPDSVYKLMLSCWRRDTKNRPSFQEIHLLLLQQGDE
The experiment can be described thus: RBC radiometric HotSpot kinase assay, DDR2. Particulars: for inhibition at 10 µM: read-out: % Inhibition at 10 μM (SEM) DDR2.

In a further experiment the test system is T47D breast cancer cells. The experiment can be described thus: NCI SRB antiproliferative assay, T47D. Type of experiment: cell-based. The conditions noted are these: Homo sapiens; for inhibition at 10 µM: read-out: % Growth inhibition at 10 µM T47D; for GI50: five-dose testing. As for the experimental part:
as §1, §2, §3

The test system of experiment [3] is HCT116 colon cancer cells. The experiment can be described thus: NCI SRB antiproliferative assay, HCT116. Type of experiment: cell-based. The conditions noted are these: Homo sapiens, HCT-116; for inhibition at 10 µM: read-out: % Growth inhibition at 10 µM HCT116; for GI50: five-dose testing. As for the experimental part: as §1, §2, §3
The subject of a further experiment is K562 leukemia cells. The experiment can be described thus: NCI SRB antiproliferative assay, K562. It counts as cell-based. Particulars: Homo sapiens; for inhibition at 10 µM: read-out: % Growth inhibition at 10 µM K562; for GI50: five-dose testing. As for the experimental part: as §1, §2, §3
Experiment [4] relates to A549 non-small cell lung cancer cells. The experiment can be described thus: NCI SRB antiproliferative assay, A549. It counts as cell-based. Particulars: Homo sapiens; for inhibition at 10 µM: read-out: % Growth inhibition at 10 µM A549; for GI50: five-dose testing. How it is done:
as §1, §2, §3

In experiment [5] the test system is NCI-H23 non-small cell lung cancer cells. The experiment can be described thus: NCI SRB antiproliferative assay, NCI-H23. It counts as cell-based. Particulars: Homo sapiens; for inhibition at 10 µM: read-out: % Growth inhibition at 10 µM NCI-H23; for GI50: five-dose testing. How it is done: as §1, §2, §3
Experiment [6] deals with T2, DDR1 (Homo sapiens, UniProt Q08345). The experiment can be described thus: RBC radiometric HotSpot kinase assay, DDR1. Particulars: for SI: Selectivity index (IC50 DDR2/IC50 DDR1): DDR1 over DDR2; for inhibition at 10 µM: read-out: % Inhibition at 10 μM (SEM) DDR1.
T2 sequence (Q08345 19-913): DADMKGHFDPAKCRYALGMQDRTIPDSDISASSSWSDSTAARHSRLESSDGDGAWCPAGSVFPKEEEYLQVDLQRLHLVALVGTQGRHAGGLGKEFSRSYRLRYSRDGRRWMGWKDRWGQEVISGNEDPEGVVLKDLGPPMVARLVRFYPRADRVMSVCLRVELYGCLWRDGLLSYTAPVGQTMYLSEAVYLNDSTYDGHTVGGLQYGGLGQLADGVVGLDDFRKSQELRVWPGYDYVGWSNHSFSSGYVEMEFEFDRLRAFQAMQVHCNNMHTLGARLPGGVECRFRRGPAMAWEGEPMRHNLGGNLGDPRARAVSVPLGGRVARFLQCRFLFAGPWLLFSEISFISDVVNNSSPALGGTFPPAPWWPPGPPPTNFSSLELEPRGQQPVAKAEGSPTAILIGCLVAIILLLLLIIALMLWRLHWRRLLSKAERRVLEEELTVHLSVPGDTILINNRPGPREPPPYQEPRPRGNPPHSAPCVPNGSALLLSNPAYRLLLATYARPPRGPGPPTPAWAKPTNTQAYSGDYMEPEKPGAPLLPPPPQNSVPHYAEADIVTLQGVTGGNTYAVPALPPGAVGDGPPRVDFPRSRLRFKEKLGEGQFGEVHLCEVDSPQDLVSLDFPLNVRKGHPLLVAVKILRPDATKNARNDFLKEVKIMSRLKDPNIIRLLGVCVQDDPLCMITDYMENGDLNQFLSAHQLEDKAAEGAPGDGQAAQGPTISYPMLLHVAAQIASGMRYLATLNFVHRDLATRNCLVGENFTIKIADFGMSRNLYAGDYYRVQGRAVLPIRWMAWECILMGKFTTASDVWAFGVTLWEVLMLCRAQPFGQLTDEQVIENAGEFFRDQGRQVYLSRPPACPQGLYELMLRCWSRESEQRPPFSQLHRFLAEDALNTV
Description: (§4) All compounds in this study were tested against DDR1 and DDR2 at a 10 µM dose at Reaction Biology Corporation (RBC, Malvern, PA, USA) employing the radiometric HotSpot Kinase assay protocol (Table 1).
Experiment [7] relates to DDR1-dependent cancer cell lines. The experiment can be described thus: NCI SRB antiproliferative assay, whole panel of DDR1-dependent cell lines. Type of experiment: cell-based, human. The conditions noted are these: span over the seven cell lines. How it is done: as §1, §2, §3
Experiment [8] addresses T2, DDR1. Also noted: purchased Reaction Biology Corporation (RBC, Malvern, PA, USA). The conditions noted are these: cited from earlier work.

Description for DDR2: as §4

As to `O=C(Nc1cccc(C(F)(F)F)c1)Nc1ccc2oc(=O)ccc2c1` [Compound 3a], the inhibition at 10 µM in [1] is 29.2%; in experiment [2], 15.8%; on DDR2, 83.6%; in the experiment on T47D breast cancer cells, 24.6%; in experiment [3], 20.9%; in the experiment with K562 leukemia cells it was 33.2%. Moreover, the inhibition at 10 µM in [4] worked out at 10.4%; in experiment [5], 13.2%; on DDR1 [6] it was 92.7%. For the same compound, the IC50 on DDR2 is 2390 nM; at DDR1 [6], 321 nM. Further, on DDR1 [6], the “SI: Selectivity index (IC50 DDR2/IC50 DDR1)” value (“SI: Selectivity index” below) worked out at 7.5.

With `O=C(Nc1ccc(C(F)(F)F)cc1)Nc1ccc2oc(=O)ccc2c1` [Compound 3b], the inhibition at 10 µM on DDR2 worked out at 11.7%; on DDR1 [6] it was 24.5%.

`O=C(Nc1ccc(F)cc1)Nc1ccc2oc(=O)ccc2c1` [Compound 3c]: the inhibition at 10 µM was found to be 15.9% at DDR2 and 25.6% at DDR1 [6].

For the compound `O=C(Nc1ccc(Br)cc1)Nc1ccc2oc(=O)ccc2c1` [Compound 3d], the inhibition at 10 µM on DDR2 stood at 7.53%; at DDR1 [6], 23.1%.

`CCCCc1ccc(NC(=O)Nc2ccc3oc(=O)ccc3c2)cc1` [Compound 3e]: the inhibition at 10 µM was found to be 3.07% on DDR2 and 15.4% at DDR1 [6].

Regarding `CCCCOc1ccc(NC(=O)Nc2ccc3oc(=O)ccc3c2)cc1` [Compound 3f], the inhibition at 10 µM at DDR2 turned out to be 5.52%; on DDR1 [6], 10.6%.

As for `O=C(Nc1ccc(Cl)c(C(F)(F)F)c1)Nc1ccc2oc(=O)ccc2c1` [Compound 3g], the inhibition at 10 µM in experiment [1] came to 88.1%; in experiment [2] it was 81.9%; on DDR2 it was 39.3%; with T47D breast cancer cells it was 91.3%; in experiment [3], 84.3%; in the experiment on K562 leukemia cells it was 80.8%. The inhibition at 10 µM was 60.1% in experiment [4], 95.2% in [5] and 49% on DDR1 [6]. Moreover, the results for the IC50 against DDR2 and at DDR1 [6] were greater than 10000 nM and 2900 nM, respectively. Further, the “SI: Selectivity index” value at DDR1 [6] was greater than 3.4.

As for `O=C(Nc1ccc(F)c(Cl)c1)Nc1ccc2oc(=O)ccc2c1` [Compound 3h], the inhibition at 10 µM in [1] is 25.4%; in experiment [2], 20.6%; at DDR2, 27.5%; in the experiment on T47D breast cancer cells it was 24.6%; in experiment [3], 14.1%; in the experiment on K562 leukemia cells it was 32.2%. Moreover, the inhibition at 10 µM in [4] turned out to be 15.1%; in experiment [5], 14.3%; on DDR1 [6], 57.2%. The IC50 was greater than 10000 nM against DDR2 and 1660 nM on DDR1 [6]. For the same compound, the “%GI over all tested cell lines” value in experiment [7] (10 µM) is given as less than 35%. For the same compound, the “SI: Selectivity index” value on DDR1 [6] was greater than 6.0.

Take `O=C(Nc1cc(C(F)(F)F)cc(C(F)(F)F)c1)Nc1ccc2oc(=O)ccc2c1` [Compound 3i]: the concentration for 50% growth inhibition (GI50) came to 1940 nM in experiment [1]; 690 nM in experiment [2]; 1340 nM in the experiment on T47D breast cancer cells; 732 nM in experiment [3]; 550 nM with K562 leukemia cells; 1590 nM in experiment [4]. This compound also returned a GI50 in experiment [5] of 940 nM. The inhibition at 10 µM in experiment [1] was found to be 96.2%; in [2], 93.6%; on DDR2, 67.3%; with T47D breast cancer cells, 95.2%; in experiment [3], 97.9%; with K562 leukemia cells, 86.3%. Moreover, the inhibition at 10 µM was 84.8% in experiment [4], 100% in [5] and 77.1% at DDR1 [6]. Moreover, the half-maximal inhibitory concentration (IC50) against DDR2 worked out at 19000 nM; on DDR1 [6], 1530 nM. The “SI: Selectivity index” value on DDR1 [6] was determined as 12.4.

On to `O=C(Nc1cc(Cl)cc(Cl)c1)Nc1ccc2oc(=O)ccc2c1` [Compound 3j], for which the GI50 in [1] is 2280 nM; in experiment [2], 2270 nM; with T47D breast cancer cells it was 1930 nM; in experiment [3], 2310 nM; in the experiment with K562 leukemia cells it was 2340 nM; in experiment [7] (Homo sapiens, read-out: GI50 over all tested cell lines), 1930 to 2900 nM. Besides, the GI50 in experiment [4] worked out at 2900 nM; in experiment [5], 2670 nM. Also, the inhibition at 10 µM in experiment [1] was found to be 94.5%; in experiment [2], 98.8%; at DDR2, 23.3%; in the experiment on T47D breast cancer cells, 96.5%; in experiment [3], 98.6%; with K562 leukemia cells, 84.6%. For the same compound, the inhibition at 10 µM amounted to 83.8% in experiment [4], 106% in experiment [5] and 48.5% on DDR1 [6]. Further, the values for the IC50 against DDR2 and against DDR1 [6] were greater than 10000 nM and 2520 nM, respectively. Besides, the “SI: Selectivity index” value at DDR1 [6] is recorded as greater than 4.0.

For `Cc1cc(C)cc(NC(=O)Nc2ccc3oc(=O)ccc3c2)c1` [Compound 3k], the inhibition at 10 µM amounted to 17.3% at DDR2 and 33.8% at DDR1 [6].

Turning to `O=C(Nc1ccc2oc(=O)ccc2c1)Nc1ccc(Cl)cc1Cl` [Compound 3l], the values for the inhibition at 10 µM at DDR2 and on DDR1 [6] were 17.1% and 19%, respectively.

As to `O=C(Nc1ccc2oc(=O)ccc2c1)Nc1ccc(F)cc1F` [Compound 3m], the inhibition at 10 µM came out at 0.78% at DDR2 and 5.83% at DDR1 [6].

With `Cc1cc(Cl)ccc1NC(=O)Nc1ccc2oc(=O)ccc2c1` [Compound 3n], the inhibition at 10 µM at DDR2 is 8.02%; at DDR1 [6] it was 10.7%.

On to `Cc1cccc(Cl)c1NC(=O)Nc1ccc2oc(=O)ccc2c1` [Compound 3o], for which the results for the inhibition at 10 µM at DDR2 and at DDR1 [6] were -1.4% and 15.7%, respectively.

For `O=C(Nc1ccc2oc(=O)ccc2c1)Nc1c(Br)cc(F)cc1Br` [Compound 3p], the results for the inhibition at 10 µM on DDR2 and at DDR1 [6] were 17.1% and 15%, respectively.

As to `O=C(Nc1ccc2oc(=O)ccc2c1)c1ccc(Cl)c(C(F)(F)F)c1` [Compound 4a], the inhibition at 10 µM came out at 3.77% at DDR2 and 5.82% on DDR1 [6].

`O=C(Nc1ccc2oc(=O)ccc2c1)c1cc(C(F)(F)F)cc(C(F)(F)F)c1` [Compound 4b]: the inhibition at 10 µM came out at 6.06% on DDR2 and 12.6% on DDR1 [6].

Turning to `O=C(Nc1ccc2oc(=O)ccc2c1)c1cc(F)cc(F)c1` [Compound 4c], the inhibition at 10 µM on DDR2 amounted to 17%; on DDR1 [6] it was 22.4%.

As to `O=C(Nc1cccc(Cl)c1)Nc1cc2ncncc2cc1OCc1cccc(F)c1` [KST9046], at DDR1 [8], the IC50 is 4380 nM.

As to `CCN1CCN(Cc2ccc(NC(=O)Nc3nc4ccc(Oc5ccnc(C(=O)NC)c5)cc4s3)cc2C(F)(F)F)CC1` [KST016366], the IC50 on DDR1 [8] was 26.5 nM.

At DDR2, `Cn1ccc(-c2cncc(CNc3cc(C(=O)Nc4cccc(OC(F)(F)F)c4)ccc3F)c2)n1` [VU6015929, reference compound] registered an IC50 of 1.55 nM.
